Experimental data taken from patent US20260144799A1, “COMPOSITION COMPRISING A FIRST RAS INHIBITOR, SECOND RAS INHIBITOR AND A SHP2 INHIBITOR FOR USE IN THE TREATMENT OF CANCER” (Revolution Medicines, Inc., priority 2022, published 2026).

Columns and labels:
[1] = tested on: eLL2 KRAS^WT/G12C NRAS^−/− A2 model; assay: Tumor cell growth in vivo, murine syngeneic eLL2 KRAS^WT/G12C NRAS^−/− A2 model; set-up: species or system C57BL/6J mice; details: on treatment; RMC-4550 30 mg/kg po qd
Protocol: Methods: Effects of Compound A and combination therapy with Compound B and/or RMC-4550 (a SHP2 inhibitor) on tumor cell growth in vivo were evaluated in the murine syngeneic eLL2 KRAS^WT/G12C NRAS^−/− A2 model using female C57BL/6J mice (6-8 weeks old). Mice were implanted with tumor cells (3×10^6 cells/mouse) in DMEM medium without supplements subcutaneously in the upper right flank. Once tumors reached an average size of ˜130 mm^3, mice were randomized to treatment groups to start the administration of test articles or vehicle. Compound A was administered by oral gavage once daily (po qd) at 200 mg/kg, compound B was administered by oral gavage once daily (po qd) at 25 mg/kg and RMC-4550 was administered by oral gavage once daily (po qd) at 30 mg/kg. In the dual combinations the compounds were administered at the same dose as the monotherapies qd. In the triple combination Compound A was dosed at 200 mg/kg po qd, Compound B was dosed at 50 mg/kg po q2d and RMC-4550 was dosed at 20 mg/kg po qd. The administration of Compound A, Compound B and RMC-4550 was ceased after 60 days of treatment in the monotherapy and combination groups. Body weight and tumor volume (using calipers) was measured twice weekly until study endpoints.

[2] = tested on: eLL2 KRAS^WT/G12C NRAS^−/− A2 tumors; assay: Tumor immune profile by flow cytometry in response to therapy; type: in vivo, murine; details: 4 days of treatment, tumors collected 24 hours post last dose, 3 animals/group
Protocol: Methods: The tumor immune profile of the murine syngeneic eLL2 KRAS^WT/G12C NRAS^−/− A2 tumors (3 animals/group) was evaluated in response to therapy by flow cytometry. The mono- and combination therapies were administered for 4 days at the concentrations described in FIG. 1 A-C. 24 hours post last dose the tumors were collected, tumor tissue was minced, processed with the Dri Tumor & Tissue Dissociation Reagent from BD Biosciences, and homogenized with the gentleMACS™ Dissociator. The cell suspension was incubated at 4° C. for 30 minutes with Mouse BD Fc Block (Clone 2.4G2 from BD Pharmingen), 10 minutes with Blue Dead Cell Stain Kit (from Invitrogen) and 30 min in cell staining buffer. […]

Cc1nc(N2CCC3(CC2)CO[C@@H](C)[C@H]3N)c(CO)nc1-c1cccc(Cl)c1Cl [RMC-4550]
effect on tumor growth (in words) [1]: tumor growth inhibition
Ly6C+ myeloid derived suppressor cells in tumor [2]: only a slight decrease
